According to patent US9096650B2, “Cyclic oligopeptides for binding to a target ligand” (LEXCICON LIMITED, priority 2006, dated 2015):
[ ]: non-standard residue; d: D form. Gly(decyl) = CCCCCCCCCC[C@H](N)C(=O)O

Key:
[1] = test system: J774A.1 cells (a macrophage cell line); test: Suppression of LPS-stimulated TNF secretion by cyclic analogues of Copaxone (Example 6); assay type: cell-based; settings: for TNF concentration: peptide 12.5 ug/ml as cyclodextrin complex, LPS 0.1 ug/ml, medium + LPS 637.6
Description: • 1. Two cyclic oligopeptides were prepared with the following structures: cyclo(-A-K-Σ-Y-E-K-A-Σ-E-Y-) cyclo(-A-K-Σ-E-Y-K-A-Σ-Y-E-) • All amino acids are in the L form unless indicated otherwise. • All amino acids are linked by peptide bonds. • A, K, Y and E represent the epitope-forming amino acids and Σ represents the associating functional group borne on the associating amino acid wherein the associating amino acid is an L-alpha aminocarboxylic acid and the associating functional group is a side-chain residue consisting of a straight aliphatic chain containing ten carbon atoms. • The cyclic oligopeptides were prepared as solutions in hexafluoro-isopropanol (HFIP) at a concentration of 10 mg/ml, then mixed with equal volumes of HFIP solution containing beta-hydroxypropyl cyclodextrin at a concentration of 50 mg/ml. The organic solutions were then dried down under nitrogen, and the peptide/cyclodextrin complex redissolved in distilled water to give a final concentration of cyclic oligopeptide of 1 mg/ml. • 2. J774A.1 cells (a macrophage cell line) were plated out in all the wells of a 24-well cluster plate at a seeding density of 3×10^5 cells/ml/well (1 ml RPMI 1640 culture medium per well), and incubated overnight at 37° C. in 5% CO2/air. • 3. The following day, the solutions from step 1 were administered to wells containing cells in step 2, to give three wells each with a final concentration of 12.5 ug/ml of peptide. Additional wells containing cyclodextrin alone at 62.5 ug/ml were also prepared. The remaining wells were left untreated. The plate was incubated for a further four hours at 37 degC. • 4. Lipopolysaccharide (from E. coli strain 0111 B4) was added to the wells receiving the cyclic oligopeptide solution, as well as three of the wells receiving no peptide. The final concentration of lipopolysaccharide was 0.1 ug/ml. • 5. The plate was incubated overnight, and the following day the supernatants were assayed for TNF using a commercial ELISA kit.

[2] = test system: J774A.1 cells (a macrophage cell line); assay type: cell-based; settings: peptide 12.5 ug/ml; CTB 10 ug/ml; CTB alone 690.8, medium control 67.5

| Substance | TNF concentration [1] [pg/mL] | effect on TNF secretion by macrophages compared with Copaxone ([1]; in words) | Concentration of TNF [2] [pg/mL] |
| --- | --- | --- | --- |
| cyclo(-A-K-Σ-E-Y-K-A-Σ-Y-E-) (cyclo(AK[Gly(decyl)]EYKA[Gly(decyl)]YE); SMILES CCCCCCCCCC[C@@H]1NC(=O)[C@H](C)NC(=O)[C@H](CCCCN)NC(=O)[C@H](Cc2ccc(O)cc2)NC(=O)[C@H](CCC(=O)O)NC(=O)[C@H](CCCCCCCCCC)NC(=O)[C@H](CCCCN)NC(=O)[C@H](C)NC(=O)[C@H](CCC(=O)O)NC(=O)[C@H](Cc2ccc(O)cc2)NC1=O) [cyclo(-A-K-Σ-E-Y-K-A-Σ-Y-E), cyclic analogue of Copaxone; Σ = L-alpha aminocarboxylic acid with straight C10 side chain] | 928.8 | – | – |
| cyclo(-A-K-Σ-Y-E-K-A-Σ-E-Y-) [cyclo(-A-K-Σ-Y-E-K-A-Σ-E-Y)] | 486.9 | displays the same effect on TNF secretion by macrophages | – |
| cyclo(-DF-R-Σ4-S-DF-R-Σ4-S-) | – | – | 664.4 |
| cyclo(-DF-R-Σ10-S-DF-R-Σ10-S-) | – | – | 268.5 |
| cyclo(-DF-S-Σ4-R-DF-S-Σ4-R-) | – | – | 621.1 |
| cyclo(-DF-S-Σ10-R-DF-S-Σ10-R-) | – | – | 85.7 |
